Common to all, as to test: microbe, parasite or virus in culture
What all share (assay type): cell-based

Experiment [1] relates to HCV 3a RLuc cells (NS5A chimeric genotype 1b Con1 replicon with consensus genotype 3a NS5A gene). How it is done: (§1) Evaluation of cell-based anti-HCV activity: Antiviral potency (EC50) was determined using a Renilla luciferase (RLuc)-based HCV replicon reporter assay. To perform the assay for genotype 1 and 2a JFH-1, HCV 1b RLuc cells (harboring a dicistronic genotype 1b Con1 replicon that encodes a RLuc reporter), or HCV 1a RLuc cells (harboring a dicistronic genotype 1a H77 replicon that encodes a RLuc reporter), or HCV 2a JFH-1 Rluc cells (harboring a dicistronic genotype 2a JFH-1 replicon that encodes a RLuc reporter) were dispensed into 384-well plates. To perform the assay for genotype 2a (with M31 present) or 2b, HCV 2a Rluc or 2b Rluc cells (both with M31 present) harboring a dicistronic NS5A chimeric genotype 2a JFH-1 replicon that encodes a RLuc reporter and either genotype 2a J6 strain NS5A gene or genotype 2b MD2b-1 NS5A gene (based on Los Alamos HCV database isolates, both with M31 present) respectively, were dispensed into 384-well plates. To perform the assay for genotype 3 and 4, HCV 3a RLuc or 4a Rluc cells harboring a dicistronic NS5A chimeric genotype 1b Con1 replicon that encodes a RLuc reporter and either a consensus genotype 3a NS5A gene or genotype 4a NS5A gene (based on Los Alamos HCV database isolates) respectively, were dispensed into 384-well plates. Compounds were re-suspended in DMSO at a concentration of 10 mM and serially diluted in DMSO either manually or using an automated pipeting instrument. Serially diluted compounds were mixed with cell culture media and added to the seeded cells. […] 72 hours later, cells were lysed and Renilla luciferase activity quantified as recommended by the manufacturer (Promega-Madison, Wis.). Non-linear regression was performed to calculate EC50 values.

Experiment [2] has as its system HCV 4a Rluc cells (NS5A chimeric genotype 1b Con1 replicon with genotype 4a NS5A gene). The following applies: Hepatitis C virus, read-out: 4a. As for the experimental part: as §1
The subject of experiment [3] is HCV 1b RLuc cells (dicistronic genotype 1b Con1 replicon, RLuc reporter). As for the experimental part:
as §1

The test system of experiment [4] is HCV 2a JFH-1 Rluc cells (dicistronic genotype 2a JFH-1 replicon, RLuc reporter). The following applies: genotype 2a JFH-1 replicon, read-out: 2a JFH. How it is done:
as §1
(A replicon is a self-replicating genome or part of one, used to study replication in cells.)

Experiment [5] has as its system HCV 1a RLuc cells (dicistronic genotype 1a H77 replicon, RLuc reporter). Conditions: read-out: 1a. As for the experimental part:
as §1

The mark [6] stands for this setting: Hepatitis C virus, read-out: 3a, genotype 3a replicon.
[7] abbreviates: Hepatitis C virus, read-out: 1b (nM).
The mark [8] stands for this setting: Hepatitis C virus, genotype 1a replicon.
[9] abbreviates: Hepatitis C virus, read-out: 3a, genotype 3a NS5A chimeric 1b Con1 replicon.
Where [10] appears, read: Hepatitis C virus, RLuc reporter.
The mark [11] stands for this setting: Hepatitis C virus, genotype 1a H77 replicon, RLuc reporter.

Where two headings read alike, the source gives them in different places.

With `COC(=O)NC(C(=O)N1CCC[C@H]1c1ncc(-c2ccc3c(c2)OCc2cc(-c4ccc5nc([C@@H]6[C@H]7CC[C@H](C7)N6C(=O)[C@H](NC(=O)OC)c6ccccc6)[nH]c5c4)ccc2-3)[nH]1)[C@@H](C)OC` (stereo in doubt) [Example 294], the EC50 in experiment [1] (setting [6]) is 0.001 to 0.99 nM; in experiment [2] it was 0.001 to 0.99 nM; in experiment [3] (setting [7]), 0.01 nM; in experiment [4] (Hepatitis C virus) it was 0.001 to 0.999 nM; in experiment [5] (setting [8]) it was 0.001 to 0.999 nM.
Regarding `COC(=O)N[C@H](C(=O)N1CCCC1c1ncc(-c2cc3c4c(c2)OCc2cc(-c5cnc([C@@H]6CCCN6C(=O)[C@@H](NC(=O)OC)C6CCC6)[nH]5)cc(c2-4)OC3)[nH]1)C1CCC1` (stereo in doubt) [Example 376], the EC50 was 0.001 to 0.99 nM in experiment [1] (setting [6]); 0.001 to 0.99 nM in experiment [2]; 0.02 nM in experiment [3] (setting [7]); 0.001 to 0.999 nM in experiment [4] (Hepatitis C virus); 0.001 to 0.999 nM in experiment [5] (setting [8]).
For the compound `COC(=O)N[C@H](C(=O)N1CCC[C@H]1c1ncc(-c2ccc3c(c2)CCc2cc(-c4cnc([C@@H]5CCCN5C(=O)[C@H](NC(=O)OC)c5ccccc5)[nH]4)ccc2-3)[nH]1)C(C)C` [Example 180], the EC50 was 0.001 to 0.99 nM in experiment [1] (setting [9]), 0.007 nM in experiment [3] (setting [7]), 0.001 to 0.999 nM in experiment [4] (setting [10]) and 0.001 to 0.999 nM in experiment [5] (setting [11]).
Turning to `COC(=O)N[C@H](C(=O)N1CCC[C@H]1c1nc2c([nH]1)COc1cc(-c3ccc4cc(-c5c[nH]c([C@@H]6CCCN6C(=O)[C@@H](c6ccccc6)N(C)C)n5)ccc4c3)ccc1-2)C1CCOCC1` [Example 182], the EC50 in experiment [1] (setting [9]) was 0.001 to 0.99 nM; in experiment [3] (setting [7]), 0.05 nM; in experiment [4] (setting [10]), 0.001 to 0.999 nM; in experiment [5] (setting [11]) it was 0.001 to 0.999 nM.
With `COC(=O)NC(C(=O)N1CCC[C@H]1c1ncc(-c2ccc(-c3ccc4cc(-c5cnc([C@@H]6CCCN6C(=O)[C@@H](NC(=O)OC)C(C)C)[nH]5)ccc4c3)cc2)[nH]1)c1ccccn1` (some centres unmarked) [Example 183], the EC50 in experiment [1] (setting [9]) is 1 to 4.99 nM; in experiment [3] (setting [7]) it was 0.013 nM; in experiment [4] (setting [10]), 0.001 to 0.999 nM; in experiment [5] (setting [11]) it was 0.001 to 0.999 nM.
In the case of `COC(=O)N[C@H](C(=O)N1C[C@H](C)C[C@H]1c1ncc(-c2ccc3cc(-c4ccc(-c5cnc([C@@H]6CCCN6C(=O)[C@H](NC(=O)OC)c6cccc(C)c6)[nH]5)cc4)ccc3c2)[nH]1)C(C)C` [Example 184], the EC50 was 0.001 to 0.99 nM in experiment [1] (setting [9]), 0.009 nM in experiment [3] (setting [7]), 0.001 to 0.999 nM in experiment [4] (setting [10]) and 0.001 to 0.999 nM in experiment [5] (setting [11]).
Consider `COC(=O)N[C@H](C(=O)N1CCC[C@H]1c1ncc(-c2ccc3cc(-c4ccc(-c5cnc([C@@H]6CCCN6C(=O)[C@H](NC(=O)OC)c6cccc(PC)c6)[nH]5)cc4)ccc3c2)[nH]1)C(C)C` (some centres unmarked) [Example 185], for which the EC50 in experiment [1] (setting [9]) is 0.001 to 0.99 nM; in experiment [3] (setting [7]), 0.008 nM; in experiment [4] (setting [10]), 0.001 to 0.999 nM; in experiment [5] (setting [11]), 1 to 44 nM.
The matching figures for `CCC(=O)N[C@@H](C(=O)N1CCC[C@H]1c1ncc(-c2ccc(-c3ccc4cc(-c5cnc([C@@H]6CCCN6C(=O)[C@@H](NC(=O)OC)C(C)C)[nH]5)ccc4c3)cc2)[nH]1)c1ccccc1` [Example 187]: 0.001 to 0.99 nM, 0.007 nM, 0.001 to 0.999 nM and 0.001 to 0.999 nM.
Take `COC(=O)N[C@H](C(=O)N1CCC[C@H]1c1ncc(-c2ccc3cc(-c4ccc(-c5cnc([C@@H]6C[C@@H](C)CN6C(=O)[C@H](NC(=O)OC)c6ccccc6)[nH]5)cc4)ccc3c2)[nH]1)C1CCOCC1` [Example 188]: the EC50 was 0.001 to 0.99 nM in experiment [1] (setting [9]), 0.012 nM in experiment [3] (setting [7]), 0.001 to 0.999 nM in experiment [4] (setting [10]) and 0.001 to 0.999 nM in experiment [5] (setting [11]).
Consider `COC(=O)N[C@H](C(=O)N1CCC[C@H]1c1ncc(-c2ccc3c(c2)CCc2cc(-c4ccc5nc([C@@H]6CCCN6C(=O)[C@H](NC(=O)OC)c6ccccc6)[nH]c5c4)ccc2-3)[nH]1)C(C)C` [Example 189], for which the EC50 was 0.001 to 0.99 nM in experiment [1] (setting [9]), 0.006 nM in experiment [3] (setting [7]), 0.001 to 0.999 nM in experiment [4] (setting [10]) and 0.001 to 0.999 nM in experiment [5] (setting [11]).
As for `COC(=O)N[C@H](C(=O)N1CCC[C@H]1c1ncc(-c2ccc3cc(-c4ccc(-c5cnc([C@@H]6CCCN6C(=O)C6(NC(=O)OC)Cc7ccccc7C6)[nH]5)cc4)ccc3c2)[nH]1)C(C)C` [Example 191], the EC50 in experiment [1] (setting [9]) is > 5 nM; in experiment [3] (setting [7]), 0.253 nM; in experiment [4] (setting [10]) it was > 44 nM; in experiment [5] (setting [11]), 1 to 44 nM.
The matching figures for `COC(=O)N[C@H](C(=O)N1CCC[C@H]1c1ncc(-c2ccc(-c3ccc(-c4ccc(-c5cnc([C@@H]6CCCN6C(=O)[C@H](NC(=O)OC)c6ccccc6)[nH]5)cc4)cc3)cc2)[nH]1)C(C)C` [Example 192]: 0.001 to 0.99 nM, 0.004 nM, 0.001 to 0.999 nM and 0.001 to 0.999 nM.
Turning to `COC(=O)N[C@H](C(=O)N1CCC[C@H]1c1ncc(-c2ccc(-c3ccc(-c4ccc(-c5cnc([C@@H]6CCCN6C(=O)[C@H](NC(=O)OC)c6ccccc6)[nH]5)cc4)cc3)cc2)[nH]1)C(C)C` [Example 193], the EC50 in experiment [1] (read-out: 3a, genotype 3a NS5A chimeric 1b Con1 replicon) was 0.001 to 0.99 nM; in experiment [3] (read-out: 1b) it was 0.005 nM; in experiment [4] (RLuc reporter) it was 0.001 to 0.999 nM; in experiment [5] (genotype 1a H77 replicon, RLuc reporter), 0.001 to 0.999 nM.
For the compound `COC(=O)NC(C(=O)N1CCC[C@H]1c1ncc(-c2ccc3c(c2)C(F)(F)c2cc(-c4ccc(-c5cnc([C@@H]6CCCN6C(=O)[C@H](NC(=O)OC)c6ccccc6)[nH]5)cc4)ccc2-3)[nH]1)C(C)C` (some centres unmarked) [Example 194], the EC50 in experiment [1] (setting [9]) was 1 to 4.99 nM; in experiment [3] (setting [7]), 0.01 nM; in experiment [4] (setting [10]), 1 to 44 nM; in experiment [5] (setting [11]), 1 to 44 nM.
In the case of `COC(=O)N[C@H](C(=O)N1CCC[C@H]1c1nc2c([nH]1)-c1ccc(-c3ccc4cc(-c5cnc([C@@H]6CCCN6C(=O)[C@@H](NC(=O)OC)C6CCOCC6)[nH]5)ccc4c3)cc1CC2)C(C)C` [Example 209], the EC50 was 0.001 to 0.99 nM in experiment [1] (setting [9]), 0.014 nM in experiment [3] (setting [7]), 0.001 to 0.999 nM in experiment [4] (setting [10]) and 0.001 to 0.999 nM in experiment [5] (setting [11]).
For `COC(=O)N[C@H](C(=O)N1CCC[C@H]1c1nc2c([nH]1)-c1ccc(-c3ccc4cc(-c5cnc([C@@H]6CCCN6C(=O)[C@H](NC(=O)OC)c6ccccc6)[nH]5)ccc4c3)cc1CC2)C(C)C` [Example 210], the EC50 in experiment [1] (setting [9]) was 0.001 to 0.99 nM; in experiment [3] (setting [7]), 0.008 nM; in experiment [4] (setting [10]), 0.001 to 0.999 nM; in experiment [5] (setting [11]), 0.001 to 0.999 nM.
As for `COC(=O)N[C@H](C(=O)N1CCC[C@H]1c1nc2c([nH]1)-c1ccc(-c3ccc4cc(-c5cnc([C@@H]6COCCN6C(=O)[C@H](NC(=O)OC)c6ccccc6)[nH]5)ccc4c3)cc1CC2)C(C)C` [Example 211], the EC50 in experiment [1] (setting [9]) is 1 to 4.99 nM; in experiment [3] (setting [7]), 0.009 nM; in experiment [4] (setting [10]), 1 to 44 nM; in experiment [5] (setting [11]), 0.001 to 0.999 nM.
The matching figures for `COC(=O)N[C@H](C(=O)N1CCC[C@H]1c1ncc(-c2ccc3cc(-c4ccc(-c5cnc([C@@H]6CCCN6C(=O)[C@H](NC(=O)CC6CCOCC6)c6ccccc6)[nH]5)cc4)ccc3c2)[nH]1)C(C)C` [Example 212]: 0.001 to 0.99 nM, 0.018 nM, 0.001 to 0.999 nM and 0.001 to 0.999 nM.
The matching figures for `COC(=O)N[C@@H](CC1CCOCC1)C(=O)N1CCC[C@H]1c1ncc(-c2ccc3cc(-c4ccc(-c5cnc([C@@H]6CCCN6C(=O)[C@H](NC(=O)OC)c6ccccc6)[nH]5)cc4)ccc3c2)[nH]1` [Example 213]: 0.001 to 0.99 nM, 0.03 nM, 0.001 to 0.999 nM and 0.001 to 0.999 nM.
The matching figures for `COC(=O)NC(C(=O)N1C[C@H](C)C[C@H]1c1ncc(-c2ccc(-c3ccc4cc(-c5cnc([C@@H]6CCCN6C(=O)[C@@H](NC(=O)OC)C6CCOCC6)[nH]5)ccc4c3)cc2)[nH]1)c1cccnc1` (some centres unmarked) [Example 214]: 0.001 to 0.99 nM, 0.06 nM, 0.001 to 0.999 nM and 0.001 to 0.999 nM.
In the case of `COC(=O)N[C@@H](C)C(=O)N1CCC[C@H]1c1nc2c([nH]1)-c1ccc(-c3ccc4cc(-c5cnc([C@@H]6CCCN6C(=O)[C@H](NC(=O)OC)c6ccccc6)[nH]5)ccc4c3)cc1CC2` [Example 272], the EC50 in experiment [1] (setting [9]) was > 5 nM; in experiment [2], 1 to 4.99 nM; in experiment [4] (setting [10]), > 44 nM; in experiment [5] (setting [11]), > 44 nM.

Source of the values: US10344019B2 (priority 2010, dated 2019).
